From patent US12268901B2, “Targeting cell tropism receptors to inhibit cytomegalovirus infection” (priority 2017, dated 2025)

Tested on: TB40E-GFP infection of ARPE19 cells
Experiment: cAMP/PKA signaling pathway modulation, TB40E-GFP infection
Assay type: cell-based, Human cytomegalovirus (HCMV)
Details: H-89 20 μM, SQ22536 150 μM, FSK 20 μM, 2 h prior to infection, MOI=4.0, 48 hpi
Procedure: (§1) FIGS. 7A-C. HCMV receptor engagement and cAMP/PKA signaling. ARPE19 or OR14I1 knock down cells were pretreated with phosphokinase A (PKA) inhibitor H-89 (20 μM), adenylate cyclase antagonist, SQ22536 (150 μM), or adenylate cyclase activator, forskolin (FSK; 20 μM) for 2 h prior to TB40E-GFP infection (MOI=4.0). Cells were fixed at 48 hpi and images taken.
H-89, SQ22536 and Foskolin were purchased from Sigma-Aldrich Chemicals. Wild type ARPE19 or ARPE19 cells expressing the indicated shRNAs were treated with protein kinase A (PKA) inhibitor H-89 (20 μM), adenylate cyclase antagonist, SQ22536 (150 μM), or adenylate cyclase activator, forskolin (FSK; 20 μM) for 2 h prior to infection with TB40E-GFP (MOI=2.0). After 2 h, the medium was then replaced by the standard medium that also contained the noted small molecules. Images were taken at 2 dpi.
as §1, with “HCMV” for “FIGS. 7A-C. HCMV”, “signaling was also evaluated.” for “signaling.”, “(MOI=4.0).” for “(MOI=4.0). Cells were fixed at 48 hpi and images taken.”

Sequence: MDNLTKVTEFLLMEFSGIWELQVLHA (N-terminal fragment of OR14I1) [Peptide 1, synthetic peptide representing the N-terminus of OR14I1, position 1-26]
- infectivity of TB40E-GFP in ARPE19 epithelial cells: reduced infectivity significantly
